Data published in patent publication US20220363673A1, “5-(Thiophen-2-YL)-1 H-Tetrazole Derivative as BCKDK Inhibitors Useful for Treating Various Diseases” (Pfizer Inc., priority 2019, published 2022).

Columns and labels:
[1] = system: Dahl salt sensitive male rats; test: Heart Failure Rat Model, high salt diet; assay type: in vivo
Protocol: Dahl salt sensitive male rats (Charles River strain SS/JrHsdMcwiCrl) were fed control diet or 6% high salt diet (iD03121701-AIN-76a rodent diet with added 6% NaCl) for 21 weeks in total. At week 5, the high salt diet-fed rats were dosed PO with 100 mg/kg BT2 or vehicle once daily for the last 16 weeks of study. Echocardiography was performed at week 18 (myocardial performance index (MPI): control diet 0.567±0.034, high salt+vehicle 0.810±0.039, high salt+BT2 0.660±0.030; Isovolumic relaxation time (IVRT): control diet 23.154±0.60 ms, high salt+vehicle 36.507±2.20 ms, high salt+BT2 31.605±1.78 ms; Intraventricular septal thickness at diastole (IVDd): control 2.03±0.088 mm, high salt+vehicle 2.877±0.110 mm, high salt+BT2 2.489±0.089 mm). NT-pro-BNP (MSD K153JKD; control […], high salt+vehicle 1003.0±200.8 μg/mL, high salt+BT2 503.4±84.96 μg/mL), and proANP (MSD K153MBD; control 33.50±5.4 ng/mL, high salt 65.19±8.3 ng/mL, high salt+BT2 38.81±7.0 ng/mL) levels were measured in plasma using MSD assays at the terminal time point. Heart weights were measured at euthanasia and normalized to tibia length (heart/tibia control 0.033±0.001 g/mm; high salt+vehicle 0.042±0.001 g/mm, high salt+BT2 0.038±0.001 g/mm).

[2] = biological target: T1, human BCKDK (Homo sapiens, UniProt O14874); test: In Vitro FRET (TR-FRET) BCKDK activity assay, phosphorylation of BCKDHE1α-E2 fusion substrate; assay type: biochemical; conditions: geometric mean, two significant figures; 15 μM ATP
T1 construct: human BCKDK (residues 31-412 of the protein pre-processing); 6xHis (N, cleaved yes); MBP (N, cleaved yes); TEV protease site (ENLYFQG) (N, cleaved yes); made in house; host or cells: BL21(DE3) E. coli, co-expressed with GroEL-GroES
Protocol: BCKDK protein was generated using a pET vector containing from N- to C-terminus: 6×His, MBP, a TEV protease site (ENLYFQG), a biotin acceptor peptide ([…]), and human BCKDK (residues 31-412 of the protein pre-processing). Protein was co-expressed with GroEL-GroES in BL21(DE3) E. coli in LB media, and protein production was induced with 0.5 mM IPTG and 0.5 mg/mL L-arabinose at an OD600 of 1 and grown for 16 h at 26° C. Bacteria were lysed using a Microfluidizer in 100 mM potassium phosphate pH 7.5, 500 mM NaCl, 0.1 mM EDTA, 1% Tween-20, 0.25% Triton X-100, 10% glycerol, 1 mM DTT, and protease inhibitors. MBP-tagged protein was purified by affinity chromatography using amylose resin, and MBP was removed from BCKDK by TEV protease incubation followed by gel filtration chromatography in 50 mM HEPES pH 7.5, 500 mM NaCl, 300 mM L-Arginine, 2 mM MgCl2, 1 mM DTT, and 10% glycerol.
A pET vector containing E. coli LplA was expressed in BL21(DE3) E. coli in LB media, and protein production was induced with 0.75 mM IPTG at an OD600 of 1 and grown for 16 h at 30° C. Bacteria were lysed using a Microfluidizer in 50 mM sodium phosphate buffer pH 7.5, 350 mM NaCl, 1.5 mM MgCl2, and 1 mM DTT. LplA protein was precipitated from clarified lysate with 1 M ammonium sulfate and further purified by gel filtration chromatography in 50 mM sodium phosphate pH 7.5, 350 mM NaCl, 1.5 mM MgCl2, 1 mM DTT, and 10% glycerol.
The BCKDHE1α-E2 fusion substrate was cloned into a pET vector and contained from N- to C-terminus: the lipoyl binding domain of E2 (residues 62-160 pre-processing), a TEV protease site (LENLYFQG), residues 331-345 (pre-processing) from E1α, and 6×His (Tso, S. C. et al., J Biol Chem 2014, 289 (30), 20583-20593). The fusion substrate was expressed in BL21(DE3) E. coli in LB media, and protein production was induced with 0.75 mM IPTG at an OD600 of 1 and grown for 16 h at 30° C. Bacteria were lysed using a Microfluidizer in 50 mM sodium phosphate pH 7.5, 350 mM NaCl, 10 mM imidazole, 10% glycerol, 1 mM DTT, and protease inhibitors. […] For lipoylation, fusion substrate was incubated with LplA at a 10:1 (substrate:LplA) ratio in 20 mM sodium phosphate pH 7.4, 6 mM MgCl2, 4 mM ATP, 2 mM DTT, 3 mM DL-6,8-thioctic acid at 37° C. The reaction was monitored using an Agilent 6530 Q-TOF coupled to an Agilent 1290 UPLC. The final lipoylated fusion substrate was purified by gel filtration chromatography in 50 mM HEPES pH 7.5, 350 mM NaCl, 1.5 mM MgCl2, 1 mM DTT, 10% glycerol.
BCKDK activity was monitored by phosphorylation of a HIS-tagged fusion BCKDHE1α-E2 substrate protein as described above and was detected using a time resolved-fluorescence resonance energy transfer (TR-FRET) assay system. Compounds were spotted into a 384 well plate, and purified human BCKDK protein was added to the plated compound. After incubation, the LBD-linker-E1 phosphorylation sequence was added in the presence of 15 μM ATP. The reaction was terminated with EDTA. Phosphorylated substrate was recognized by the addition of rabbit anti-E1 phospho Ser293 antibodies (Bethyl Laboratories—A304-672A), and the TR-FRET signal was developed by addition of anti-HIS donor molecules (Europium; Perkin Elmer—AD0205, AD0110, AD0111) and anti-Rabbit acceptor molecules (Ulight; Perkin Elmer—TRF502D, TRF502M, TRF502R). Recognition of phosphorylated E1 brought donor and acceptor molecules into close proximity, and excitation at 320 nm caused energy transfer from the Europium donor to the Ulight acceptor dye, which in turn generated light at 665 nm. Signal intensity was proportional to the level of BCKDK-mediated substrate phosphorylation. Reactions were normalized to zero percent effect with DMSO and one hundred percent effect with 600 μM Radicicol, a known BCKDK inhibitor. IC50 curves were generated using ABASE software (IDBS, Boston Mass.).

[3] = system: Mice fed 60% high fat diet; test: Diabetic Animal Model: fasting glucose and oral glucose tolerance test; assay type: in vivo; conditions: for fasting plasma glucose levels: mean±SEM, vehicle 185±18; for Area under the curve for the glucose tolerance test as percent of vehicle treated group: 1 g/kg dextrose, vehicle 100.0±7
Protocol: Mice fed 60% high fat diet (Research Diets 12492) were dosed PO with Example 1 for one day, fasted overnight, and blood glucose was measured with an alpha track glucometer. The animals were dosed again PO with Example 1 the next morning, and one hour later, blood glucose was measured again immediately using an alpha track glucometer (Zoetis, Parsippany, N.J.) to assess fasting glucose levels prior to oral gavage of 1 g/kg dextrose. Blood glucose was measured 15, 30, 60, and 120 minutes after the gavage, and the data were plotted and analyzed as area under the curve using GraphPad Prism 8.0 (GraphPad Software, La Jolla, Calif.). For animals that were dosed with vehicle or Example 1 as above, mean±SEM fasting plasma glucose levels were 185±18 (vehicle, n=7), 194±14 (3 mg/kg, n=9), 160±11 (10 mg/kg, n=10), 136±9 mg/dL (30 mg/kg, n=9). Area under the curve for the glucose tolerance test as percent of vehicle treated group was 100.0±7 (vehicle, n=7), 106±9 (3 mg/kg, n=9), 99±2 (10 mg/kg, n=10), 72±4 (30 mg/kg, n=9).

[4] = system: phosphorylation of S293 BCKDH; test: Phospho BCKDHA AlphaLISA in human skeletal myocytes; assay type: cell-based; conditions: 1 h, 60 minutes, maximal effect relative to BT2
Protocol: Prior to conducting the assay, BCKDH antibodies (Bethyl A303-790A) were biotinylated using the ChromaLink™ One-Shot Antibody Biotinylation Kit B-9007-009K and phospho Ser293 BCKDHA antibodies (Bethyl A304-672A) were directly conjugated to AlphaLISA Acceptor Beads (custom conjugation performed by Perkin Elmer's Lance/Delfia Custom Services, Boston Mass.). Human skeletal myocytes (Gibco A11440) were plated in a 384 well plate at a density of 7500 live cells/well and grown in skeletal muscle growth media containing the media supplement and chick embryo extract (Promocell C-23060 and C-23160, MP92850145). After overnight incubation, media was removed, and BCKDK inhibitors were added in assay media (growth media diluted 10-fold in PBS). After 60 minutes, the media was removed, the cells were washed with PBS and lysed in 10 μL of buffer (Cell Signaling #9803) containing 2 nM biotinylated total BCKDH antibodies. Samples were incubated for 60 minutes, and 5 μL of AlphaLISA acceptor beads conjugated with phospho-S293 BCKDH antibodies were added 1× Alpha buffer. […] Fluorescence was emitted when the phospho and total BCKDH antibodies were within proximity, signifying phosphorylation of S293 BCKDH. Fluorescence was monitored on the Envision plate reader. The zero percent effect was determined from DMSO treatment and the maximal effect was assessed relative to the BCKDK inhibitor BT2. […]

IC50 [2]	IC50 [4]	Structure (SMILES)	Heart weight normalized to tibia length (heart/tibia) ([1]; at euthanasia, 100 mg/kg PO once daily, control 0.033±0.001, high salt+vehicle 0.042±0.001)	Intraventricular septal thickness at diastole (IVDd) ([1]; echocardiography week 18, 100 mg/kg PO once daily, control 2.03±0.088, high salt+vehicle 2.877±0.110)	myocardial performance index (MPI) ([1]; echocardiography week 18, 100 mg/kg PO once daily, control diet 0.567±0.034, high salt+vehicle 0.810±0.039)	Isovolumic relaxation time (IVRT) ([1]; echocardiography week 18, 100 mg/kg PO once daily, control diet 23.154±0.60, high salt+vehicle 36.507±2.20)	proANP level in plasma ([1]; terminal time point, 100 mg/kg PO once daily, control 33.50±5.4, high salt 65.19±8.3)	fasting plasma glucose levels ([3]; 3 mg/kg PO, n=9)	Area under the curve for the glucose tolerance test as percent of vehicle treated group ([3]; 3 mg/kg PO, n=9)	fasting plasma glucose levels ([3]; 10 mg/kg PO, n=10)	Area under the curve for the glucose tolerance test as percent of vehicle treated group ([3]; 10 mg/kg PO, n=10)	fasting plasma glucose levels ([3]; 30 mg/kg PO, n=9)	Area under the curve for the glucose tolerance test as percent of vehicle treated group ([3]; 30 mg/kg PO, n=9)
		O=C(O)c1sc2cc(Cl)ccc2c1Cl [BT2]	0.038±0.001 g/mm	2.489±0.089 mm	0.660±0.030	31.605 ± 1.78 ms	38.81 ± 7.0 ng/mL						
1.9 µM	18 ± 2.3 µM	Cc1c(Br)csc1-c1nnn[nH]1 [Example 1, 5-(4-Bromo-3-methylthiophen-2-yl)-1H-tetrazole]						194 ± 14 mg/dL	106±9% of vehicle treated group	160 ± 11 mg/dL	99±2% of vehicle treated group	136 ± 9 mg/dL	72±4% of vehicle treated group
1.4 µM	11 ± 0.87 µM	Cc1cc(Cl)sc1-c1nnn[nH]1 [Example 9, 5-(5-Chloro-3-methylthiophen-2-yl)-1H-tetrazole]											
